# Experimental data: US20180035670A1, “ACTIVE COMPOUND COMBINATIONS” (BAYER CROPSCIENCE AKTIENGESELLSCHAFT, priority 2015, published 2018)
# “And” between values parts separate entries of the source, which are not always exact repeats. Identical values can stand only once. Like-named read-outs stand apart in the source and are kept apart here.
# Key:
# [1] = system: Venturia inaequalis; experiment: in vivo preventive test on Venturia test (apples); conditions: for pest or weed control at 0.25 ppm: read-out: Efficacy in % found, 0.25 ppm a.i., apples, 10 days after inoculation; for pest or weed control at 0.5 ppm: read-out: Efficacy in % found, 0.5 ppm a.i., apples, 10 days after inoculation; for pest or weed control at 2 ppm: read-out: Efficacy in % found, 2 ppm a.i., apples, 10 days after inoculation; for pest or weed control at 10 ppm: read-out: Efficacy in % found, 10 ppm a.i., apples, 10 days after inoculation; for pest or weed control at 1 ppm: read-out: Efficacy in % found, 1 ppm a.i., apples, 10 days after inoculation; for Efficacy in % found: apples, 10 days after inoculation
# Experimental: After the spray coating has dried on, the plants are inoculated with an aqueous conidia suspension of the causal agent of apple scab (Venturia inaequalis) and then remain for 1 day in an incubation cabinet at approximately 20° C. and a relative atmospheric humidity of 100%. The plants are then placed in a greenhouse at approximately 21° C. and a relative atmospheric humidity of approximately 90%.
# The test is evaluated 10 days after the inoculation.
# [2] = system: Phakopsora pachyrhizi; experiment: in vivo preventive test on Phakopsora test (soybeans); conditions: 7 days after inoculation; for pest or weed control at 0.25 ppm: 0.25 ppm a.i.; for pest or weed control at 0.5 ppm: 0.5 ppm a.i.; for pest or weed control at 1 ppm: 1 ppm a.i.
# [3] = system: Botrytis cinerea; experiment: in vivo preventive test on Botrytis test (beans); conditions: 2 days after inoculation
# Experimental: After the spray coating has dried on, 2 small pieces of agar covered with growth of Botrytis cinerea are placed on each leaf.
# The inoculated plants are placed in a darkened chamber at 20° C. and a relative atmospheric humidity of 100%.
# 2 days after the inoculation, the size of the lesions on the leaves is evaluated.
# [4] = system: Phytophthora infestans; assay type: in vivo; conditions: tomatoes, 3 days after inoculation
# [5] = system: Alternaria solani; experiment: in vivo preventive test on Alternaria test (tomatoes); conditions: 3 days after inoculation
# Experimental: After the spray coating has dried on, the plants are inoculated with an aqueous spore suspension of Alternaria solani. The plants are then placed in an incubation cabinet at approximately 20° C. and a relative atmospheric humidity of 100%.
# The test is evaluated 3 days after the inoculation.
# [6] = system: Sphaerotheca fuliginea; experiment: in vivo preventive test on Sphaerotheca test (cucumbers); conditions: 7 days after inoculation
# Experimental: After the spray coating has dried on, the plants are inoculated with an aqueous spore suspension of Sphaerotheca fuliginea. The plants are then placed in a greenhouse at approximately 23° C. and a relative atmospheric humidity of approximately 70%.
# The test is evaluated 7 days after the inoculation.
# [7] = Phakopsora pachyrhizi, 168 h, read-out: Efficacy in % found
Molecule,"pest or weed control at 0.25 ppm ([1]; Venturia inaequalis, 240 h)","pest or weed control at 0.25 ppm [2, 7]","pest or weed control at 0.5 ppm [2, 7]","pest or weed control at 1 ppm [2, 7]",Efficacy in % found ([3]; 0.25 ppm a.i.),Efficacy in % found ([3]; 0.5 ppm a.i.),Efficacy in % found ([3]; 1 ppm a.i.),Efficacy in % found ([4]; 10 ppm a.i.),Efficacy in % found ([4]; 20 ppm a.i.),Efficacy in % found ([5]; 0.25 ppm a.i.),Efficacy in % found ([5]; 0.5 ppm a.i.),Efficacy in % found ([5]; 1 ppm a.i.),Efficacy in % found ([5]; 2 ppm a.i.),"pest or weed control at 0.5 ppm ([1]; Venturia inaequalis, 240 h)",also measured
"CC1(C)N=C(c2cnc3ccccc3c2)c2ccccc2C1(F)F [15.090, 3-(4,4-difluoro-3,3-dimethyl-3,4-dihydroisoquinolin-1-yl)quinoline]",19%,0%,0%,0%,0%,0%,28%,–,–,–,–,–,–,–,–
"CC[C@@H]1CC(C)(C)c2cccc(NC(=O)c3cccnc3C(F)F)c21 [(I-4), 2-(difluoromethyl)-N-[(3R)-3-ethyl-1,1-dimethyl-2,3-dihydro-1H-inden-4-yl]nicotinamide]",15%,65%,85%,–,0%,8%,–,10%,7%,8%,40%,30% and 55%,35%,–,–
"CCC[C@@H]1CC(C)(C)c2cccc(NC(=O)c3cccnc3C(F)F)c21 [(I-6), 2-(difluoromethyl)-N-[(3R)-1,1-dimethyl-3-propyl-2,3-dihydro-1H-inden-4-yl]nicotinamide]",–,75%,–,–,15%,0%,19% and 11%,14%,8%,0%,0%,8% and 15%,51%,0%,"Efficacy in % found ([4]; 5 ppm a.i.): 21%; pest or weed control at 2 ppm ([1]; Venturia inaequalis, 240 h): 15%"
"O=[N+]([O-])c1cc(C(F)(F)F)c(Cl)c([N+](=O)[O-])c1Nc1ncc(C(F)(F)F)cc1Cl [14.004, fluazinam, reference compound]",–,–,–,–,–,–,–,45%,28%,–,–,–,–,–,"pest or weed control at 10 ppm ([1]; Venturia inaequalis, 240 h): 0%; pest or weed control at 5 ppm ([2]; Phakopsora pachyrhizi, 168 h, 5 ppm a.i., read-out: Efficacy in % found): 0%; Efficacy in % found ([3]; 5 ppm a.i.): 63%; Efficacy in % found ([5]; 10 ppm a.i.): 0%"
"O[C@@H](c1cccnc1)c1c(-c2ccc(Cl)cc2F)noc1-c1ccc(F)cc1F [1.104, (S)-[3-(4-chloro-2-fluorophenyl)-5-(2,4-difluorophenyl)-1,2-oxazol-4-yl](pyridin-3-yl)methanol]",0%,0%,–,0%,–,15%,26%,–,–,0%,0%,0%,–,11%,"Efficacy in % found ([6]; 0.25 ppm a.i.): 0%; Efficacy in % found ([6]; 1 ppm a.i.): 0%; pest or weed control at 1 ppm ([1]; Venturia inaequalis, 240 h): 19%"
"N#Cc1c(Cl)c(Cl)c(Cl)c(C#N)c1Cl [5.004, chlorothalonil, reference compound]",–,–,–,–,–,–,–,–,–,–,–,–,–,–,"pest or weed control at 25 ppm ([1]; Venturia inaequalis, 240 h, read-out: Efficacy in % found, 25 ppm a.i., apples, 10 days after inoculation): 36%; pest or weed control at 6.25 ppm ([2]; Phakopsora pachyrhizi, 168 h, 6.25 ppm a.i., read-out: Efficacy in % found): 18%; pest or weed control at 12.5 ppm ([2]; Phakopsora pachyrhizi, 168 h, 12.5 ppm a.i., read-out: Efficacy in % found): 0%; Efficacy in % found ([5]; 50 ppm a.i.): 0%"
"mancozeb [5.023, reference compound]",–,–,–,–,–,–,–,–,–,–,–,–,–,–,Efficacy in % found ([1]; 25 ppm a.i.): 31%; Efficacy in % found ([1]; 50 ppm a.i.): 34%; Efficacy in % found ([2]; 6.25 ppm a.i.): 24%; Efficacy in % found ([2]; 12.5 ppm a.i.): 41%; Efficacy in % found ([3]; 25 ppm a.i.): 0%; Efficacy in % found ([3]; 50 ppm a.i.): 0%; Efficacy in % found ([5]; 50 ppm a.i.): 0%
"propineb [5.029, reference compound]",–,–,–,–,–,–,–,–,–,–,–,–,–,–,Efficacy in % found ([1]; 12.5 ppm a.i.): 11%; Efficacy in % found ([1]; 25 ppm a.i.): 94%; Efficacy in % found ([2]; 6.25 ppm a.i.): 0%; Efficacy in % found ([2]; 12.5 ppm a.i.): 0%; Efficacy in % found ([3]; 25 ppm a.i.): 0%; Efficacy in % found ([5]; 50 ppm a.i.): 0%
"CCC1CC(C)(C)c2cccc(NC(=O)c3cccnc3C(F)F)c21 (centres unmarked) [(I-3), 2-(difluoromethyl)-N-(3-ethyl-1,1-dimethyl-2,3-dihydro-1H-inden-4-yl)nicotinamide]",4%,–,65%,84%,–,–,15%,–,4%,15%,23%,40%,35%,18%,"Efficacy in % found ([6]; 0.5 ppm a.i.): 0%; Efficacy in % found ([6]; 1 ppm a.i.): 0%; Efficacy in % found ([4]; 5 ppm a.i.): 28%; pest or weed control at 2 ppm ([1]; Venturia inaequalis, 240 h): 11%; Efficacy in % found ([3]; 2 ppm a.i.): 23%"
"COC(=O)Nc1nc2ccccc2[nH]1 [4.002, carbendazim, reference compound]",–,–,–,–,–,–,–,–,–,–,–,–,–,–,"pest or weed control at 5 ppm ([1]; Venturia inaequalis, 240 h, read-out: Efficacy in % found, 5 ppm a.i., apples, 10 days after inoculation): 8%; pest or weed control at 10 ppm ([1]; Venturia inaequalis, 240 h): 21%; pest or weed control at 1.25 ppm ([2]; Phakopsora pachyrhizi, 168 h, 1.25 ppm a.i., read-out: Efficacy in % found): 0%; pest or weed control at 2.5 ppm ([2]; Phakopsora pachyrhizi, 168 h, 2.5 ppm a.i., read-out: Efficacy in % found): 0%; Efficacy in % found ([3]; 5 ppm a.i.): 0%; Efficacy in % found ([5]; 10 ppm a.i.): 0%"
"CCCC1CC(C)(C)c2cccc(NC(=O)c3cccnc3C(F)F)c21 (centres unmarked) [(I-5), 2-(difluoromethyl)-N-(1,1-dimethyl-3-propyl-2,3-dihydro-1H-inden-4-yl)nicotinamide]",8%,60%,–,–,0%,0%,–,0%,4%,–,–,0%,8%,0%,"Efficacy in % found ([4]; 5 ppm a.i.): 17%; pest or weed control at 2 ppm ([1]; Venturia inaequalis, 240 h): 0%"
"CC(O)(Cn1cncn1)c1ccc(Oc2ccc(Cl)cc2)cc1C(F)(F)F (centres unmarked) [1.084, 2-[4-(4-chlorophenoxy)-2-(trifluoromethyl)phenyl]-1-(1H-1,2,4-triazol-1-yl)propan-2-ol]",11%,–,8%,0%,–,–,–,–,–,8%,8% and 0%,15%,–,34%,"Efficacy in % found ([6]; 0.5 ppm a.i.): 0%; pest or weed control at 1 ppm ([1]; Venturia inaequalis, 240 h): 31%"
